Laboratory results as given in ChEMBL document CHEMBL1909046, “DrugMatrix in vitro pharmacology data”.
pIC50, pKi: −log10 of the molar value.

Tests used:
[1] = target: 5-hydroxytryptamine receptor 4 (Cavia porcellus, UniProt O70528); assay type: cell membranes, Dunkin-Hartley, Striatum, Membrane; further: in other assays of this panel Not Active means under 50% inhibition at 10 µM
Substance-P receptor = Substance-P receptor (Homo sapiens, UniProt P25103); assay type: cell membranes, CHO, Membrane; settings: cho; further: in other assays of this panel Not Active means under 50% inhibition at 10 µM
[2] = target: T1, Vasoactive intestinal polypeptide receptor 1 (Homo sapiens, UniProt P32241); assay type: cell membranes, Membrane; settings: ht-29; further: in other assays of this panel Not Active means under 50% inhibition at 10 µM
T1 sequence (P32241 whole entry): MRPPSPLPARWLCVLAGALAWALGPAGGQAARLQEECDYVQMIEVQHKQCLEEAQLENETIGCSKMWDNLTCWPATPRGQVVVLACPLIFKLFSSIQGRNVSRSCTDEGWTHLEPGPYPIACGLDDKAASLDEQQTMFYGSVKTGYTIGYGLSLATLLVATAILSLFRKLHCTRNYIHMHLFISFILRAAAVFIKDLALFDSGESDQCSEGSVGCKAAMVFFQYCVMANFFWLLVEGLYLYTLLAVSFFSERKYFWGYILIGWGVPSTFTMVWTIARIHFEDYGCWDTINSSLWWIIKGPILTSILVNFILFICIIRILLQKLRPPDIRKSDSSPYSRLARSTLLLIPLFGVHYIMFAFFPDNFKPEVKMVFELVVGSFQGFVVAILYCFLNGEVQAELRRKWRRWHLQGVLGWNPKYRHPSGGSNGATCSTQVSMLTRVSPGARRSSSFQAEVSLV

[3] = target: T2, Nitric oxide synthase, inducible (Mus musculus, UniProt P29477); design: species or system Escherichia coli;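 further: inhibition of iNOS enzyme activity measured with L-arginine as substrate; in other assays of this panel Not Active means under 50% inhibition at 10 µM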
T2 sequence (P29477 whole entry): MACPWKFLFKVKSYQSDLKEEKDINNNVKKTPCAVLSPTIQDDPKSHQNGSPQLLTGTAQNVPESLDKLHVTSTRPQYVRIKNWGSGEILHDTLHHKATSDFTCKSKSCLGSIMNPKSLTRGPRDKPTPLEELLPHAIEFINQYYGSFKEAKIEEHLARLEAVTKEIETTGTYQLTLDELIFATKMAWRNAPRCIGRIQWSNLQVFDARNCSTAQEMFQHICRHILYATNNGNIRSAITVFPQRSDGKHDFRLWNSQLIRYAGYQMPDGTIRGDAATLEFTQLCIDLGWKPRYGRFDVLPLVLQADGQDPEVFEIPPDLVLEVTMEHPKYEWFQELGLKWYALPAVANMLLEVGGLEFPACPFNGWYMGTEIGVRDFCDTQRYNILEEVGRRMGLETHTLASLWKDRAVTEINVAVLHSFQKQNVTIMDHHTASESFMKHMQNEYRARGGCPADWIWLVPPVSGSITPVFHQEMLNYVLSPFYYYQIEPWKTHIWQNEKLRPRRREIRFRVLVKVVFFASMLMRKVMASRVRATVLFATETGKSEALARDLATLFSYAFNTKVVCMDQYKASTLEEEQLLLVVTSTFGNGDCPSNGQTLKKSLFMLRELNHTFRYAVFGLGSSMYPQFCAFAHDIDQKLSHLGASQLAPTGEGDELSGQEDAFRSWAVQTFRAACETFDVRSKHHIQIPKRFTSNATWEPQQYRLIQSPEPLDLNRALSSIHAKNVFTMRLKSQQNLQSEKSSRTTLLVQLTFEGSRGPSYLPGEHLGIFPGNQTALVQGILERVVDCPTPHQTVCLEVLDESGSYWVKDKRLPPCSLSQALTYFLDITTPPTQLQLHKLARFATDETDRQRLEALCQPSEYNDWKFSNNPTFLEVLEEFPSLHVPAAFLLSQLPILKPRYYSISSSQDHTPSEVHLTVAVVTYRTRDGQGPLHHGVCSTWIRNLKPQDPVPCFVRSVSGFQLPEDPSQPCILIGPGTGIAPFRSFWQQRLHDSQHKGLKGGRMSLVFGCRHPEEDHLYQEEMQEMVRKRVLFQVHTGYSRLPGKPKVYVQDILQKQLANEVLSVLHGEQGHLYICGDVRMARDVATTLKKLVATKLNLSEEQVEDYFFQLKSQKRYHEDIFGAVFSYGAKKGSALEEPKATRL

[4] = target: Mitogen-activated protein kinase 3 (Homo sapiens, UniProt P27361); experiment: DRUGMATRIX: Protein Serine/Threonine Kinase, ERK1 enzyme inhibition (substrate: Myelin Basic Protein); design: species or system Escherichia coli; settings: Not Active = under 50% inhibition at 10 µM; for pIC50: read-out: IC50
[5] = target: Mitogen-activated protein kinase 1 (Homo sapiens, UniProt P28482); experiment: DRUGMATRIX: Protein Serine/Threonine Kinase, ERK2 enzyme inhibition (substrate: Myelin Basic Protein); design: species or system Escherichia coli; settings: Not Active = under 50% inhibition at 10 µM
[6] = target: T3, 5-hydroxytryptamine receptor 1A (Rattus norvegicus, UniProt P19327); assay type: cell membranes, CHO-K1, Membrane; settings: for IC50: cho-k1
T3 sequence (P19327 whole entry): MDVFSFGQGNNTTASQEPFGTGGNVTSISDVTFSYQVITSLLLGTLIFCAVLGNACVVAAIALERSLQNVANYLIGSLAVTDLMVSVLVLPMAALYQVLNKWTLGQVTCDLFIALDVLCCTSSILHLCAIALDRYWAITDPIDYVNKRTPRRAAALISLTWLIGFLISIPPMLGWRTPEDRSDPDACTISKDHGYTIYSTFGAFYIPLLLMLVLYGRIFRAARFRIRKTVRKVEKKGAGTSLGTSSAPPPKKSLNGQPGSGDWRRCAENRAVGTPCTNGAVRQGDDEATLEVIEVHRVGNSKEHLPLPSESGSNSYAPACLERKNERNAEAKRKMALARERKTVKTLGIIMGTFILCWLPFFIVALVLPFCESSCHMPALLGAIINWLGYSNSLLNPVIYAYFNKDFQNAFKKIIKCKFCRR

Sequence of 5-hydroxytryptamine receptor 4 (O70528 whole entry): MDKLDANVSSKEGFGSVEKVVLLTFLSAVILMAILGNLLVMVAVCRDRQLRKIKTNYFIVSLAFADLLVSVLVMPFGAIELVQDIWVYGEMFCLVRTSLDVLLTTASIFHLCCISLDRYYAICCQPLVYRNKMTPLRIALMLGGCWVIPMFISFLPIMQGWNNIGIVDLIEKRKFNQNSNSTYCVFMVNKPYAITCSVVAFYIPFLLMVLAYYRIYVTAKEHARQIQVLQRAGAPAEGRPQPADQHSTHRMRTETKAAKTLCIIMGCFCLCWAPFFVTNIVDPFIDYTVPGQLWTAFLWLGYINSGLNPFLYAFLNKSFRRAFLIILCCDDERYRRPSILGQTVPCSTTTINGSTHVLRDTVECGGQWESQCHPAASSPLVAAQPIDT
Sequence of Mitogen-activated protein kinase 3 (P27361 whole entry): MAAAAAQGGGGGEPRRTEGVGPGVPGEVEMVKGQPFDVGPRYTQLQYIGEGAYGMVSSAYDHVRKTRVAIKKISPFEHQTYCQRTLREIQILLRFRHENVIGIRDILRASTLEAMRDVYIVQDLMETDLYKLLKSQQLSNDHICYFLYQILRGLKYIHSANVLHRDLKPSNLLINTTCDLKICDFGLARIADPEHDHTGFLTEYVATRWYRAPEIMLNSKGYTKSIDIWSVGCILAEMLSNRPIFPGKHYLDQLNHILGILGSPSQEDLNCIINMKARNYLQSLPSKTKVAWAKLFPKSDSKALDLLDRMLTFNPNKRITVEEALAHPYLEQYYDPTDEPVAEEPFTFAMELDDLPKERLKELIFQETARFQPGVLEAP
Sequence of Substance-P receptor (P25103 whole entry): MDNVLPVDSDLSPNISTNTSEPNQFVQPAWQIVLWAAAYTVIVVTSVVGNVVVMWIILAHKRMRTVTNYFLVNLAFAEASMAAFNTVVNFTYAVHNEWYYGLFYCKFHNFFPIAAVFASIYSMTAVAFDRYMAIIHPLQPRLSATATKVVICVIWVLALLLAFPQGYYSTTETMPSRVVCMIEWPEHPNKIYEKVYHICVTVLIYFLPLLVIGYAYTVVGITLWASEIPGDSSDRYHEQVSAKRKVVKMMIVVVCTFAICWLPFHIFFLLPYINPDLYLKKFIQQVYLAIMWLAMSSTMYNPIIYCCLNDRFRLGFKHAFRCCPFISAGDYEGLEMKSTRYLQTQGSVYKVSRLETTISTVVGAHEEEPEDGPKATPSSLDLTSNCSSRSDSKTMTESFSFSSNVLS
Sequence of Mitogen-activated protein kinase 1 (P28482 whole entry): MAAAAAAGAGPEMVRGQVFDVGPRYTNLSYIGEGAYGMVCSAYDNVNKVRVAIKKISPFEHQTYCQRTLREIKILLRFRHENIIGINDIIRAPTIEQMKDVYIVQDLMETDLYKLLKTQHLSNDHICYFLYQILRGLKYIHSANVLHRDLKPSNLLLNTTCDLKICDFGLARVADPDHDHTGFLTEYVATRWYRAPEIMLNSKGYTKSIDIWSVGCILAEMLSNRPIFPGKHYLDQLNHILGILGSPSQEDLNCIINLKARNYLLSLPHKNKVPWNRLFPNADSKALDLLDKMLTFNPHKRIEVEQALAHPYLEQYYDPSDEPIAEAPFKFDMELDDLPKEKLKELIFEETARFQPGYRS

SMILES | IC50 [1] | IC50 (Substance-P receptor) | IC50 [2] | IC50 [3] | IC50 [4] | IC50 [5] | IC50 [6] | pIC50 [4] | pIC50 ([5]; read-out: IC50) | pIC50 ([6]; read-out: IC50) | pKi ([6]; read-out: Ki) | Ki [1]
CC(C)=CCC/C(C)=C/CO [GERANIOL] | Not Active | Not Active | Not Active | Not Active | Not Active | Not Active | Not Active | – | – | – | – | –
N=C(N)NC(=O)Cc1c(Cl)cccc1Cl [GUANFACINE] | Not Active | Not Active | Not Active | Not Active | Not Active | Not Active | Not Active | – | – | – | – | –
Oc1c(Cl)cc(Cl)c(Cl)c1Cc1c(O)c(Cl)cc(Cl)c1Cl [HEXACHLOROPHENE] | Not Active | Not Active | Not Active | Not Active | – | – | Not Active | 5.60 | 6.71 | – | – | –
NNc1nncc2ccccc12 [HYDRALAZINE] | Not Active | Not Active | Not Active | Not Active | Not Active | Not Active | Not Active | – | – | – | – | –
CC(=O)[C@@]1(O)CC[C@H]2[C@@H]3CCC4=CC(=O)CC[C@]4(C)[C@H]3CC[C@@]21C [HYDROXYPROGESTERONE] | Not Active | Not Active | Not Active | Not Active | – | Not Active | Not Active | 5.50 | – | – | – | –
COC1=C(OC)C(=O)C(CCCCCCCCCCO)=C(C)C1=O [IDEBENONE] | Not Active | Not Active | Not Active | Not Active | Not Active | Not Active | Not Active | – | – | – | – | –
CC(C)NNC(=O)c1ccncc1 [IPRONIAZID] | Not Active | Not Active | Not Active | Not Active | Not Active | Not Active | Not Active | – | – | – | – | –
Cc1c(OCC(F)(F)F)ccnc1C[S+]([O-])c1nc2ccccc2[nH]1 (centres undefined) [LANSOPRAZOLE] | Not Active | Not Active | Not Active | Not Active | Not Active | Not Active | Not Active | – | – | – | – | –
O=c1cc(N2CCOCC2)oc2c(-c3ccccc3)cccc12 [LY-294002] | Not Active | Not Active | Not Active | Not Active | Not Active | Not Active | Not Active | – | – | – | – | –
COc1ccc2[nH]cc(CCNC(C)=O)c2c1 [MELATONIN] | Not Active | Not Active | Not Active | Not Active | Not Active | Not Active | Not Active | – | – | – | – | –
NC(=O)C[S+]([O-])C(c1ccccc1)c1ccccc1 (centres undefined) [MODAFINIL] | Not Active | Not Active | Not Active | Not Active | Not Active | Not Active | Not Active | – | – | – | – | –
CCN(CC)CCOCCC1=CCC2CC1C2(C)C (centres undefined) [MYRTECAINE] | Not Active | Not Active | Not Active | Not Active | Not Active | Not Active | Not Active | – | – | – | – | –
O=C(O)c1cccnc1Nc1cccc(C(F)(F)F)c1 [NIFLUMIC ACID] | Not Active | Not Active | Not Active | Not Active | Not Active | Not Active | Not Active | – | – | – | – | –
O=C(N/N=C/c1ccc([N+](=O)[O-])o1)c1cc([N+](=O)[O-])cc([N+](=O)[O-])c1O [NIFURSOL] | Not Active | Not Active | Not Active | Not Active | Not Active | Not Active | Not Active | – | – | – | – | –
COC(=O)Nc1nc2ccc(C(=O)c3cccs3)cc2[nH]1 [NOCODAZOLE] | Not Active | Not Active | Not Active | Not Active | Not Active | Not Active | Not Active | – | – | – | – | –
C#CC1(O)CC[C@H]2[C@@H]3CCC4=CC(=O)CC[C@@H]4[C@H]3CC[C@@]21CC (some centres undefined) [NORGESTREL] | Not Active | Not Active | Not Active | Not Active | Not Active | Not Active | Not Active | – | – | – | – | –
COC(=O)Nc1nc2ccc([S+]([O-])c3ccccc3)cc2[nH]1 (centres undefined) [OXFENDAZOLE] | Not Active | Not Active | Not Active | Not Active | Not Active | Not Active | Not Active | – | – | – | – | –
CC(=O)O[C@H]1C(=O)[C@@]2(C)[C@H]([C@H](OC(=O)c3ccccc3)[C@]3(O)C[C@H](OC(=O)[C@H](O)[C@@H](NC(=O)c4ccccc4)c4ccccc4)C(C)=C1C3(C)C)[C@]1(OC(C)=O)CO[C@@H]1C[C@@H]2O [PACLITAXEL] | Not Active | Not Active | Not Active | Not Active | Not Active | Not Active | Not Active | – | – | – | – | –
C[n+]1ccc(-c2cc[n+](C)cc2)cc1.[Cl-].[Cl-] [PARAQUAT DICHLORIDE] | Not Active | Not Active | Not Active | Not Active | Not Active | Not Active | Not Active | – | – | – | – | –
CC(C)NCC(O)COc1cccc2[nH]ccc12 (centres undefined) [PINDOLOL] | Not Active | Not Active | Not Active | Not Active | Not Active | Not Active | – | – | – | 7.32 | 7.57 | –
CCn1cc(C(=O)O)c(=O)c2cnc(N3CCCC3)nc21 [PIROMIDIC ACID] | Not Active | Not Active | Not Active | Not Active | Not Active | Not Active | Not Active | – | – | – | – | –
C[n+]1ccccc1/C=N/O.[Cl-] [PRALIDOXIME CHLORIDE] | – | Not Active | Not Active | Not Active | Not Active | Not Active | Not Active | – | – | – | – | Not Active
COc1cc2nc(N3CCN(C(=O)c4ccco4)CC3)nc(N)c2cc1OC [PRAZOSIN] | Not Active | Not Active | Not Active | Not Active | Not Active | Not Active | Not Active | – | – | – | – | –
C[C@]12C=CC(=O)C=C1CC[C@@H]1[C@@H]2[C@@H](O)C[C@@]2(C)[C@H]1CC[C@]2(O)C(=O)CO [PREDNISOLONE] | Not Active | Not Active | Not Active | Not Active | Not Active | Not Active | Not Active | – | – | – | – | –
